For experiment [1], the system named is SBD in Hsp70 with covalently modified E444. The following applies: PDB ID: 4WV7; ref [29]; cited from earlier work. The text has this:
E444 in Hsp70 is accessible by NBD in the apo-form SBD(∆CDE)-y, whereas it is covered by the Lα,β loop and therefore this interaction is hindered in the substrate-bound form (Figure 7a,b). This is consistent with the observation for Q442 in DnaK, as described above.

Experiment [2] concerns the target T1, SBD(∆CDE)-y of human Hsp70 (Homo sapiens, UniProt P0DMV8, L542Y).
T1 construct: We solved the solution structure of SBD(∆CDE) comprising residues 382–564; His6 (N, cleaved yes); made in house; host or cells: E. coli BL21(DE3)
Nature of the experiment: Binding kinetics estimated from simulation of NMR exchange. The procedure: This gives a kon = 2.3 × 10^4 M^−1 s^−1, which is consistent with the kinetics for the lidless SBD of DnaK in binding to its target peptide (kon = 2 × 10^4 M^−1 s^−1 and koff = 12.5 s^−1).
The NMR titration experiments were performed by acquiring a series of 2D ^1H-^15N HSQC spectra of the protein in 50 mM potassium phosphate (pH 7.0), 50 mM KCl and 10 mM DTT at 310 K (37 °C). The NR-peptide (0.075 mM, 0.15 mM, 0.30 mM, 0.60 mM, 1.2 mM, 3.0 mM and 6.0 mM) was titrated into a sample containing 0.3 mM ^15N labeled SBD(∆CDE)-y. Data processing and analysis were performed with NMRPipe and KUJIRA [41], respectively. The dissociation constant, KD, was estimated by fitting Equation (1) to the bound fraction of SBD(∆CDE)-y, fbound: (1) fbound([L]total)=1−I([L]total)/I0=([P]total+[L]total+KD)−([P]total+[L]total+KD)^2−4[P]total[L]total/2[P]total where [L]total and [P]total are the total concentrations of NR-peptide and SBD(∆CDE)-y, respectively, and I and I0 are the signal intensities with and without NR-peptide. Each signal intensity was measured by a similar procedure described in Section 4.3. […] Uncertainties in the dissociation constant was estimated by Monte Carlo simulations on the basis of the uncertainty for each signal intensity evaluated using the root-mean-square deviation value on a spectral region with no signals, which was obtained by the NMRPipe built-in module.

For experiment [3], the target named is T2, SBD(∆CDE)-y, substrate-binding domain of human Hsp70 (HSPA1A) lacking αC, αD and αE, with the L542Y mutation (human, UniProt P0DMV8 382-564, L542Y).
T2 construct: Cloned in pET16b (NdeI/XhoI); 15N- or 13C/15N-labelled for NMR, unlabelled (LB medium) for ITC; also called mutant SBD; apo-form SBD; source: E. coli BL21(DE3), purified (HisTrap FF, Factor Xa cleavage, HiTrap Q FF); not shown: His6, N-terminal, cleaved
T2 sequence (P0DMV8 382-564 L542Y): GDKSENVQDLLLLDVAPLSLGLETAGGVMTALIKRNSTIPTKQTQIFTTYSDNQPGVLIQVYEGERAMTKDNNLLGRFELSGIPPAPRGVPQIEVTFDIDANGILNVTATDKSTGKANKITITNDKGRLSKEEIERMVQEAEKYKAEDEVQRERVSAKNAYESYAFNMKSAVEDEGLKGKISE
Description: ITC; 1.5 μL injections of 5 mM NR-peptide into 200 μL of 0.1 mM SBD(∆CDE)-y; single-site fit with the stoichiometry fixed as n = 1; triplicate. The following applies: both partners purified. For orientation: Isothermal titration calorimetry measures the heat released or taken up as one component is titrated into another.

In experiment [4] the target is T3, SBD(∆CDE) (S537C/L542Y) mutant, labelled at residue 537 with MTSL or its diamagnetic analog (human, UniProt P0DMV8 382-564, S537C | L542Y, MTSL nitroxide radical, or the diamagnetic MTSL analog, on C537).
T3 construct: 15N-labelled for NMR; PDB 5XIR is the parent SBD(∆CDE)-y without S537C; also called SBD(∆CDE)-y harboring a S537C mutation; SBD(∆CDE)-y with spin labeling at residue 537; source: E. coli BL21(DE3), purified (as in Section 4.1), then labelled with MTSL; not shown: His6, N-terminal, cleaved
T3 sequence (P0DMV8 382-564 S537C/L542Y): as the sequence (P0DMV8 382-564 L542Y) above, with S156C counted along it
Nature of the experiment: NMR paramagnetic relaxation enhancement; 2D 1H-15N HSQC of 0.5 mM spin-labelled SBD(∆CDE) (S537C/L542Y) with/without 5.0 mM NR-peptide; 50 mM potassium phosphate pH 7.0, 50 mM KCl, 37 °C. As to conditions: both partners purified.

For experiment [5], the target named is T2, SBD(∆CDE)-y, substrate-binding domain …. Nature of the experiment: NMR titration; 2D 1H-15N HSQC; NR-peptide (0.075-6.0 mM) titrated into 0.3 mM 15N-labelled SBD(∆CDE)-y; 50 mM potassium phosphate pH 7.0, 50 mM KCl, 10 mM DTT, 37 °C; slow exchange; global fit of signal intensities of 28 residues. The following applies: both partners purified.

Results on three molecules are retold here after article PMC6017645, “Substrate Binding Switches the Conformation at the Lynchpin Site in the Substrate-Binding Domain of Human Hsp70 to Enable Allosteric Interdomain Communication” (Molecules : A Journal of Synthetic Chemistry and Natural …, 2018).

What is called kon is the second-order rate constant of association. One may read the koff as the rate constant with which the complex falls apart. As a reminder, the Kd is a measure of binding affinity in units of concentration. Low values mean higher affinity, high ones lower affinity.

T1 sequence (P0DMV8 382-564 L542Y): as the sequence (P0DMV8 382-564 L542Y) above

Take `C=CC1=CC[C@H]2[C@@H](C[C@@H](O)[C@@]3(O)[C@@]4(C)C(=O)O[C@H]4CC[C@]23C)[C@H]1C` [novolactone]: the “effect of covalent E444 modification on interdomain interactions” value in experiment [1] is reported as “sterically blocks the interdomain interactions”.
`CC(C)C[C@H](NC(=O)[C@H](CC(C)C)NC(=O)[C@H](CCCNC(=N)N)NC(=O)[C@@H](N)CC(N)=O)C(=O)N[C@@H](CC(C)C)C(=O)N[C@H](C(=O)NCC(=O)O)[C@@H](C)O` [NR-peptide]: the kon in experiment [2] (from koff 30 s^−1 and KD = 1.3 mM) was 23000 M⁻¹ s⁻¹. Moreover, the koff in experiment [2] (simulation using average R2 rate 21 s^−1 and KD = 1.3 mM, SBD(∆CDE)-y 0.3 mM, peptide 3.0 mM, read-out: maximum koff) was at most 30 s⁻¹.

B1: NR-peptide (peptide)
peptide: NRLLLTG
notes: Model client peptide of Hsp70; also called NRLLLTG; client-peptide
Consider B1, for which the Kd in experiment [3] was 1500 µM; in experiment [5] it was 1300 µM. Besides, in experiment [4], the binding result was “binds”.
